# Laboratory results: patent publication US20250059188A1, “ARYLSULPHONAMIDE COMPOUNDS” (Anaxis Pharma Pty Ltd, priority 2021, published 2025)
# Key:
# Settings in all cases: equilibrium dissociation constant
# human MLKL (full length) = human MLKL (full length) (Homo sapiens (Human), UniProt Q8NB16); assay: KINOMEscan binding assay, human MLKL (full length)
# Experimental: (§1) Binding affinity of the test compounds for human MLKL (full length), mouse MLKL (full length), human RIPK1 and human RIPK3 was determined using the KINOMEscan™ technology developed by DiscoverX (USA; http://www.discoverx.com). The assay was conducted according to manufacturer instructions.
# (§2) Kinase assays. For most assays, kinase-tagged T7 phage strains were grown in parallel in 24-well blocks in an E. coli host derived from the BL21 strain. E. coli were grown to log-phase and infected with T7 phage from a frozen stock (multiplicity of infection=0.4) and incubated with shaking at 32° C. until lysis (90-150 minutes). The lysates were centrifuged (6,000×g) and filtered (0.2 μm) to remove cell debris. The remaining kinases were produced in HEK-293 cells and subsequently tagged with DNA for qPCR detection. […] The liganded beads were blocked with excess biotin and washed with blocking buffer (SeaBlock (Pierce), 1% BSA, 0.05% Tween 20, 1 mM DTT) to remove unbound ligand and to reduce non-specific phage binding. […] All reactions were performed in polypropylene 384-well plates in a final volume of 20 μL. […] The kinase concentration in the eluates was measured by qPCR.
# (§3) An 11-point 3-fold serial dilution of each test compound was prepared in 100% DMSO at 100× final test concentration and subsequently diluted to 1× in the assay (final DMSO concentration=1%). Most Kos were determined using a compound top concentration=30,000 nM.
# (§4) KD for each test compound was calculated with a standard dose-response curve using the Hill equation (equation (1)): […]
# (§5) The Hill Slope was set to −1.
# (§6) Curves were fitted using a non-linear least square fit with the Levenberg-Marquardt algorithm.
# human RIPK1 = human RIPK1 (Homo sapiens (Human), UniProt Q13546); assay: KINOMEscan binding assay, human RIPK1
# Chain of human RIPK1 (Q13546 whole entry): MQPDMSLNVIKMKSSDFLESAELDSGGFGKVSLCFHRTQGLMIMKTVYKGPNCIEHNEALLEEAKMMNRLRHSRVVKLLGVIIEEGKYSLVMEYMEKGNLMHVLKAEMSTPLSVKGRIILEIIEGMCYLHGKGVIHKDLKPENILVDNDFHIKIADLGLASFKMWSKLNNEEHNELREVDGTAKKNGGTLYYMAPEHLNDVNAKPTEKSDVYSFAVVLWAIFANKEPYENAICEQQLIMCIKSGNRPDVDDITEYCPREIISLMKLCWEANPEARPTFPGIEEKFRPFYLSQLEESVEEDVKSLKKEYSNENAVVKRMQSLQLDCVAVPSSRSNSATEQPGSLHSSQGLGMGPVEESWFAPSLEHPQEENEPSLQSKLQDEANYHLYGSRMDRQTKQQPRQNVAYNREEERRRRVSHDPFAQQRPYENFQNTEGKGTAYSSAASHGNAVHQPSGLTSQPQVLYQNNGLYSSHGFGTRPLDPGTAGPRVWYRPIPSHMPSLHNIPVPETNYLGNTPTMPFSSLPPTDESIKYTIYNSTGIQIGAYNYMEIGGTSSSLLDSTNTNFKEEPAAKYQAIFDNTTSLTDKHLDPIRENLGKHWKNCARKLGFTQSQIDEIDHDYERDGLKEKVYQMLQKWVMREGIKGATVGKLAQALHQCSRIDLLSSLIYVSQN
# Experimental: as §1, §2, §3, §4, §5, §6
# human RIPK3 = human RIPK3 (Homo sapiens (Human), UniProt Q9Y572); assay: KINOMEscan binding assay, human RIPK3
# Chain of human RIPK3 (Q9Y572 whole entry): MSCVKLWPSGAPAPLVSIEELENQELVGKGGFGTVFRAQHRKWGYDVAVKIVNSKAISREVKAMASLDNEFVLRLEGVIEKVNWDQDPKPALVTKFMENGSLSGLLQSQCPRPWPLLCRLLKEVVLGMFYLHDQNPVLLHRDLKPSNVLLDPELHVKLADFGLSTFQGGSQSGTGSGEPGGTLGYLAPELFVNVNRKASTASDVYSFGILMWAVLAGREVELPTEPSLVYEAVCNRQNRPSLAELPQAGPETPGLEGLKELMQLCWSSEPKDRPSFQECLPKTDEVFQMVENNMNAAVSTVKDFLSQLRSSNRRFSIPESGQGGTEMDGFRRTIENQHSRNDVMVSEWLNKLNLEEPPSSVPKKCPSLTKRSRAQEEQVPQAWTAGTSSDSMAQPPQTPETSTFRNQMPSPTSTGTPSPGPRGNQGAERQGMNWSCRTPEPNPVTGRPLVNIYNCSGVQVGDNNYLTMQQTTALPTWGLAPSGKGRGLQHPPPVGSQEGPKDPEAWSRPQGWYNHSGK
# Experimental: as §1, §2, §3, §4, §5, §6
# Chain of human MLKL (full length) (Q8NB16 whole entry): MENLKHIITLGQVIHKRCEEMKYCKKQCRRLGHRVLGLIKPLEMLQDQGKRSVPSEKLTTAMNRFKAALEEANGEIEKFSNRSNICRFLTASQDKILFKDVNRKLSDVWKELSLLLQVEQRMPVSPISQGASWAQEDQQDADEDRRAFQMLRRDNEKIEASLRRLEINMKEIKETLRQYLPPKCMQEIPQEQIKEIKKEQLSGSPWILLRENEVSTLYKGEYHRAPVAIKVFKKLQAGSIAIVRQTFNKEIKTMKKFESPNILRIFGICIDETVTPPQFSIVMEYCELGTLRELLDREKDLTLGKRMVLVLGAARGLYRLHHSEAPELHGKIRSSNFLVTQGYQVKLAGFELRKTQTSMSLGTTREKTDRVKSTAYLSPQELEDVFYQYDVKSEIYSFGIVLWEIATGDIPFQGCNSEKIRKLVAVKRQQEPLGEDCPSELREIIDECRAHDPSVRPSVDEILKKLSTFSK
SMILES,Kd (human MLKL (full length)),Kd (human RIPK1),Kd (human RIPK3)
"C[C@H](Oc1cc(-c2nn(C)c3c(-c4cnn(C5CCOCC5)c4)cnc(N)c23)ccc1NS(=O)(=O)C(F)F)c1ccccc1F [Compound 118, (S)-N-(4-(4-amino-1-methyl-7-(1-(tetrahydro-2H-pyran-4-yl)-1H-pyrazol-4-yl)-1H-pyrazolo[4,3-c]pyridin-3-yl)-2-(1-(2-fluorophenyl)ethoxy)phenyl)-1,1-difluoromethanesulfonamide]",0.001 to 0.1 µM,> 10 µM,> 10 µM
"CCS(=O)(=O)Nc1ccc(-c2ncn3ccnc(N)c23)cc1OCc1ccc(F)cc1 [Compound 63, N-(4-(8-Aminoimidazo[1,5-a]pyrazin-1-yl)-2-((4-fluorophenyl)methoxy)phenyl) ethane-1-sulfonamide]",0.1 to 10 µM,> 10 µM,> 10 µM
"Nc1ncc(-c2cnn(CCO)c2)c2occ(-c3ccc(NS(=O)(=O)C(F)F)c(OCc4ccc(F)cc4)c3)c12 [Compound 6, N-(4-(4-amino-7-(1-(2-hydroxyethyl)-1H-pyrazol-4-yl)furo[3,2-c]pyridin-3-yl)-2-((4-fluorobenzyl)oxy)phenyl)-1,1-difluoromethanesulfonamide]",< 0.001 µM,> 10 µM,> 10 µM
"Cn1nc(-c2ccc(NS(=O)(=O)C(F)F)c(OCc3ccc(F)cc3)c2)c2c(N)nccc21 [Compound 10, N-(4-{4-amino-1-methyl-1H-pyrazolo[4,3-c]pyridin-3-yl}-2-[(4-fluorophenyl)methoxy]phenyl)-1,1-difluoromethanesulfonamide]",0.001 to 0.1 µM,> 10 µM,> 10 µM
"CCS(=O)(=O)Nc1ccc(-c2nn(C)c3c(NC(C)=O)cnc(N)c23)cc1OCc1ccc(F)cc1 [Compound 2, N-(4-amino-3-(4-(ethylsulfonamido)-3-((4-fluorobenzyl)oxy)phenyl)-1-methyl-1H-pyrazolo[4,3-c]pyridin-7-yl)acetamide]",0.001 to 0.1 µM,> 10 µM,> 10 µM
"C[C@H](Oc1cc(-c2nn(C)c3c(-c4cnn5c4CNCC5)cnc(N)c23)ccc1NS(=O)(=O)C(F)F)c1ccc(F)cc1 [Compound 90, (S)-N-(4-(4-amino-1-methyl-7-(4,5,6,7-tetrahydropyrazolo[1,5-a]pyrazin-3-yl)-1H-pyrazolo[4,3-c]pyridin-3-yl)-2-(1-(4-fluorophenyl)ethoxy)phenyl)-1,1-difluoromethanesulfonamide]",0.001 to 0.1 µM,> 10 µM,> 10 µM
"Cn1nc(-c2ccc(NS(=O)(=O)C(F)F)c(OCc3nccs3)c2)c2c(N)ncc(-c3cnn(C4CCOCC4)c3)c21 [Compound 143, N-(4-(4-amino-1-methyl-7-(1-(tetrahydro-2H-pyran-4-yl)-1H-pyrazol-4-yl)-1H-pyrazolo[4,3-c]pyridin-3-yl)-2-(thiazol-2-ylmethoxy)phenyl)-1,1-difluoromethanesulfonamide]",< 0.001 µM,> 10 µM,> 10 µM
"CCS(=O)(=O)Nc1ccc(-c2coc3c(-c4cnn(CCO)c4)cnc(N)c23)cc1OCc1ccc(F)cc1 [Compound 4, N-(4-(4-amino-7-(1-(2-hydroxyethyl)-1H-pyrazol-4-yl)furo[3,2-c]pyridin-3-yl)-2-((4-fluorobenzyl)oxy)phenyl)ethanesulfonamide]",0.001 to 0.1 µM,> 10 µM,> 10 µM
"C[C@H](Oc1cc(-c2nn(C)c3c(Cc4ccccc4)cnc(N)c23)ccc1NS(=O)(=O)C(F)F)c1ccc(F)cc1 [Compound 34, (S)-N-(4-(4-amino-7-benzyl-1-methyl-1H-pyrazolo[4,3-c]pyridin-3-yl)-2-(1-(4-fluorophenyl)ethoxy)phenyl)-1,1-difluoromethanesulfonamide]",0.001 to 0.1 µM,> 10 µM,> 10 µM
"C[C@H](Oc1cc(-c2nn(C)c3c(C4=CCCNC4)cnc(N)c23)ccc1NS(=O)(=O)C(F)F)c1ccc(F)cc1 [Compound 54, (S)—N-(4-(4-amino-1-methyl-7-(1,2,5,6-tetrahydropyridin-3-yl)-1H-pyrazolo[4,3-c]pyridin-3-yl)-2-(1-(4-fluorophenyl)ethoxy)phenyl)-1,1-difluoromethanesulfonamide]",0.001 to 0.1 µM,> 10 µM,> 10 µM
